# Data reported in patent US8029799B2, “Use of thymosin alpha 1 for preparing a medicament for the treatment of stage IV malignant melanoma” (SciClone Pharmaceuticals, Inc., priority 2006, dated 2011).
# Ends that are not written are not given here.
# What was measured:
# lymphosarcoma cells = conditions: BALB/c mice; cited from earlier work
# [1] = tested on: Stage IV Melanoma Characterized by Distant Unresectable Metastases; experiment: Phase II clinical trial, tumor response (RECIST) in stage IV melanoma patients; format: in vivo, human; conditions: preliminary analysis on 142 patients; higher doses of Tα1
# Protocol: Trial Design phase II, randomized, stratified, open-study testing different doses of Tα1 in association with DTIC and IFNα, as first line therapy for stage IV melanoma patients characterized by distant unresectable metastases (AJCC; Journal of Clinical Oncology 2001, 19: 3635-3648) without brain metastases. The primary study end-point was tumor response, and the following combination composition were used: • DTIC (800 mg/m^2)+IFNα (3 MIU)+Tα1 (1.6 mg) (97 pts); • DTIC (800 mg/m^2)+IFNα (3 MIU)+Tα1 (3.2 mg) (97 pts); • DTIC (800 mg/m^2)+Tα1 (3.2 mg) (98 pts); • DTIC (800 mg/m^2)+IFNα (3 MIU) (94 pts);
# The five groups were analyzed independently one another within the so-called “pick the winner” strategy.
# Methods: Recycling every 28 days, patients were administered DTIC (800 mg/m^2) i.v. at day 1, Tα1 (1.6, 3.2 or 6.4 mg) s.c. at days 8-11 and 15-18, and IFNα (3 MIU) s.c. at day 11 and 18. Clinical response was evaluated every two cycles according to RECIST criteria (New Guidelines to Evaluate the Response to Treatment in Solid Tumors; Journal of the National Cancer Institute, 2000. 92: 205-216) utilizing a central reader.
# The randomized patients were stratified according to the disease site: M1a, M1b or M1c level.
# 1) Patients with cutaneous, subcutaneous and/or limphnodal metastases with normal serum LDH value (from 96 to 460 U/L) were classified as M1a. […]
# [2] = tested on: methylcholanthrene-induced fibrosarcoma; conditions: mice with methylcholanthrene-induced fibrosarcoma; cited from earlier work
# [3] = tested on: human non-small cell lung cancer (NSCLC) cells; conditions: 1 or 10 mg per day subcutaneous; nude mice inoculated with human NSCLC cells; cited from earlier work
substance,measurement,setting,value
"thymosin alpha 1 (SDAAVDTSSEITTKDLKEKKEVVEEAEN; ends and bridges not checked; UniProt P06454 2-29, looked up) [a compound well known in the medical field]",liver and lung metastases of lymphosarcoma cells,lymphosarcoma cells,significantly reduced
same,local sarcoma growth,lymphosarcoma cells,significantly reduced
same,dose-response effect,[1],clear dose-response effect
same,pulmonary metastases,[2],reduced
same,tumor volume,[3],significantly decreased
